30 molecules from patent US20230167073A1 (Teijin Pharma Limited, priority 2020, published 2023) can be followed below.

SMILES strings stand for the structures.

The target of the experiment is T1, Human TRPC6 (Homo sapiens, UniProt Q9Y210).
T1 construct: expressed in transfected cells
T1 sequence (Q9Y210 1-931): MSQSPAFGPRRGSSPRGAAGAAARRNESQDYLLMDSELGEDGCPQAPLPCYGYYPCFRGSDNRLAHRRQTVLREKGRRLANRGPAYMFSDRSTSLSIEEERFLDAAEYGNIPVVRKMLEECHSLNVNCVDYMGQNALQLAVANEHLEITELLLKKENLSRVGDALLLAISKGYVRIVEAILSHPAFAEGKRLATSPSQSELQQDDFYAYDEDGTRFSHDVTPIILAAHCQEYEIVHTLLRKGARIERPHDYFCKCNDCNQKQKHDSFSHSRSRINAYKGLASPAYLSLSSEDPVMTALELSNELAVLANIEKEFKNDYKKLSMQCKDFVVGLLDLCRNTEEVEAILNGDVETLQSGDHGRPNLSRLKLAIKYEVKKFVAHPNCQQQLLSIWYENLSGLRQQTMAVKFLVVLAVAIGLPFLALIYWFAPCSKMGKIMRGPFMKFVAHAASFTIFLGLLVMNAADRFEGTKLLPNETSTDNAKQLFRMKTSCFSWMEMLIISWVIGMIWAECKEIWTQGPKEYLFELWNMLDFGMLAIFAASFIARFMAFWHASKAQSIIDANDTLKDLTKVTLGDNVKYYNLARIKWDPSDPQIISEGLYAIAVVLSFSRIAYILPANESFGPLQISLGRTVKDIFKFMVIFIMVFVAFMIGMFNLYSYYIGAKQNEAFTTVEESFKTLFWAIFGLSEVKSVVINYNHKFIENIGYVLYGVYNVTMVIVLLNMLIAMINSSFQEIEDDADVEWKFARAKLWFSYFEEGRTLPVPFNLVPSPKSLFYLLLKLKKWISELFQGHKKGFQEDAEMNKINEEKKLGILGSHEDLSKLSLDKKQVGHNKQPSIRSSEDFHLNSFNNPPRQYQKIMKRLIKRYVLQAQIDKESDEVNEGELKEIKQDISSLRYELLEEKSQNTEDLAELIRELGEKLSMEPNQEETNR
In words: Evaluation of TRPC6 channel inhibitory activity (1), FLIPR Calcium 5 Assay Kit, OAG stimulation (Compound Nos. 1-1293). In kind it is cell-based. Conditions: Human TRPC6 stably-expressing cells, OAG 30 μM, FLIPR Calcium 5 Assay Kit; read-out: Inhibitory activity (pIC50 class) (converted). Summed up:
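Readout is pIC50 from four-parameter logistic fitting of inhibition of the OAG-evoked (30 μM final) fluorescence calcium signal. Human TRPC6 stable cells are dye-loaded with probenecid, and compound is applied 20 min ahead of agonist.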
For `Cn1nc(C2CCOCC2)cc1Oc1cc(F)ccc1-c1ccc(CCN)cn1` [compound 1010, 2-[6-[4-fluoro-2-[2-methyl-5-(oxan-4-yl)pyrazol-3-yl]oxyphenyl]pyridin-3-yl]ethanamine], the IC50 is < 10 nM.
The figure for `Cn1nc(C2CCC2)cc1Oc1cc(C#N)ccc1-c1ccc(C(O)CN)cn1` (stereo not drawn) [Compound 276, 4-[5-(2-amino-1-hydroxyethyl)pyridin-2-yl]-3-(5-cyclobutyl-2-methylpyrazol-3-yl)oxybenzonitrile] is < 10 nM; for `Cc1nc(OCC2(C)COC2)cc(Oc2cc(C#N)ccc2-c2ncc(CCN)cn2)n1` [compound 885, 4-[5-(2-aminoethyl)pyrimidin-2-yl]-3-[2-methyl-6-[(3-methyloxetan-3-yl)methoxy]pyrimidin-4-yl]oxybenzonitrile] it is > 1000 nM.
The figure for `CC(C)n1cc(C(=O)c2cc(F)ccc2-c2ncc(CCN)cn2)cn1` [compound 1102, [2-[5-(2-aminoethyl)pyrimidin-2-yl]-5-fluorophenyl]-(1-propan-2-ylpyrazol-4-yl)methanone] is 10 to 1000 nM; for `Cn1nc(C(C)(C)C)cc1C(=O)c1cc(C#N)ccc1-c1ncc(CN)cn1` [Compound No. 1030, 4-[5-(Aminomethyl)pyrimidin-2-yl]-3-(5-tert-butyl-2-methylpyrazole-3-carbonyl)benzonitrile] it is < 10 nM; for `Cn1nc(C(C)(C)C)cc1C(=O)c1cc(C#N)ccc1-c1ncc(CCN)cn1` [compound 1031, 4-[5-(2-aminoethyl)pyrimidin-2-yl]-3-(5-tert-butyl-2-methylpyrazole-3-carbonyl)benzonitrile] it is < 10 nM.
The result for `Cn1nc(-c2nccs2)cc1Oc1cc(C#N)ccc1-c1ccc(CCN)cn1` [compound 390, 4-[5-(2-aminoethyl)pyridin-2-yl]-3-[2-methyl-5-(1,3-thiazol-2-yl)pyrazol-3-yl]oxybenzonitrile] reads < 10 nM; that for `Cn1nc(N2CCCC2)cc1Cc1cc(C#N)ccc1-c1ncc(CCN)cn1` [compound 1211, 4-[5-(2-aminoethyl)pyrimidin-2-yl]-3-[(2-methyl-5-pyrrolidin-1-ylpyrazol-3-yl)methyl]benzonitrile], < 10 nM.
Take `Cc1nn(-c2ccccn2)cc1Oc1cc(C#N)ccc1-c1ncc(CN)cn1` [compound 833, 4-[5-(aminomethyl)pyrimidin-2-yl]-3-(3-methyl-1-pyridin-2-ylpyrazol-4 yl)oxybenzonitrile]: the IC50 is < 10 nM.
The figure for `NCc1cnc(-c2ccc(F)cc2C(=O)c2cnn(C3CCC3)c2)nc1` [compound 1109, [2-[5-(aminomethyl)pyrimidin-2-yl]-5-fluorophenyl]-(1-cyclobutylpyrazol-4-yl)methanone] is 10 to 1000 nM; for `Cc1nc(Oc2cc(C#N)ccc2-n2cc([C@@H](O)CNC3COC3)cn2)cc(-c2ccccc2)n1` [Compound 244, 4-[4-[(1R)-1-hydroxy-2-(oxetan-3-ylamino)ethyl]pyrazol-1-yl]-3-(2-methyl-6-phenylpyrimidin-4-yl)oxybenzonitrile] it is 10 to 1000 nM; for `Cc1nc(Sc2cc(C#N)ccc2-n2cc(CCN)cn2)cc(N2CCOCC2)n1` [compound 1251, 4-[4-(2-aminoethyl)pyrazol-1-yl]-3-(2-methyl-6-morpholin-4-ylpyrimidin-4-yl)sulfanylbenzonitrile] it is 10 to 1000 nM.
The figure for `Cn1nc(C2CC2)cc1Oc1cc(C#N)ccc1-c1ncc(NCCN)cn1` [compound 432, 4-[5-(2-aminoethylamino)pyrimidin-2-yl]-3-(5-cyclopropyl-2-methylpyrazol-3-yl)oxybenzonitrile] is < 10 nM.
The figure for `Cc1nc(Oc2cc(C#N)ccc2-c2ncc(CCN)cn2)cc(N2CCC[C@@H]2C)n1` [compound 860, 4-[5-(2-aminoethyl)pyrimidin-2-yl]-3-[2-methyl-6-[(2S)-2-methylpyrrolidin-1-yl]pyrimidin-4-yl]oxybenzonitrile] is < 10 nM.
For the molecule `COC(c1cc(-c2nccs2)no1)c1cc(C#N)ccc1-c1ccc(CCN)cc1` (stereo not drawn) [Compound No. 1232, 4-[4-(2-Aminoethyl)phenyl]-3-[methoxy-[3-(1,3-thiazol-2-yl)-1,2-oxazol-5-yl]methyl]benzonitrile], the IC50 is > 1000 nM.
The result for `C#CCOc1cc(Oc2cc(C#N)ccc2-c2ncc(CCN)cn2)nc(C)n1` [compound 926, 4-[5-(2-aminoethyl)pyrimidin-2-yl]-3-(2-methyl-6-prop-2-ynoxypyrimidin-4-yl)oxybenzonitrile] reads > 1000 nM; that for `Cn1nc(C2CC2)cc1Oc1cc(C#N)ccc1-c1ccc(C(N)c2nnn[nH]2)cn1` (stereo not drawn) [compound 511, 4-[5-[amino(1H-tetrazol-5-yl)methyl]pyridin-2-yl]-3-(5-cyclopropyl-2-methylpyrazol-3-yl)oxybenzonitrile], > 1000 nM; that for `Cc1cc(Oc2cc(C#N)ccc2-c2ncc(CCN)cn2)cc(C)n1` [compound 438, 4-[5-(2-aminoethyl)pyrimidin-2-yl]-3-(2,6-dimethylpyridin-4-yl)oxybenzonitrile], 10 to 1000 nM.
The figure for `Cc1cc(Oc2cc(C#N)ccc2-c2ccc(CCN)cn2)cc(N2CCOCC2)n1` [Compound 173, 4-[5-(2-aminoethyl)pyridin-2-yl]-3-(2-methyl-6-morpholin-4-ylpyridin-4-yl)oxybenzonitrile] is < 10 nM.
The result for `COc1ccccc1-c1cc(Oc2cc(C#N)ccc2-c2ccc(CCN)cc2)cnn1` [Compound 118, 4-[4-(2-aminoethyl)phenyl]-3-[6-(2-methoxypheny)pyridazin-4-yl]oxybenzonitrile] reads 10 to 1000 nM; that for `N#Cc1ccc(-c2ccc(CCN)cc2)c(Oc2cnnc(O[C@H]3CCC[C@@H]3O)c2)c1` [Compound 124, 4-[4-(2-aminoethyl)phenyl]-3[6-[(1S,2S)-2-hydroxycyclopentyl]oxypyridazin-4-yl]oxybenzonitrile], 10 to 1000 nM.
In the case of `Cn1nc(-c2ccccn2)cc1Oc1cc(C#N)ccc1-c1ncc(CNC2CC2)cn1` [compound 662, 4-[5-[(cyclopropylamino)methyl]pyrimidin-2-yl]-3-(2-methyl-5-pyridin-2-ylpyrazol-3-yl)oxybenzonitrile], the IC50 was 10 to 1000 nM.
For the molecule `Cn1nc(-c2ccccc2)cc1Oc1cc(C#N)ccc1-c1cnc(CCN)cn1` [compound 313, 4-[5-(2-aminoethyl)pyrazin-2-yl]-3-(2-methyl-5-phenylpyrazol-3-yl)oxybenzonitrile], the IC50 is < 10 nM.
On to `Cc1nc(Oc2cc(F)ccc2-c2ccc(CN)cn2)cc(N2CCOCC2)n1` [compound 1003, [6-[4-fluoro-2-(2-methyl-6-morpholin-4-ylpyrimidin-4-yl)oxyphenyl]pyridin-3-yl]methanamine], for which the IC50 was 10 to 1000 nM.
In the case of `Cc1cc(Oc2cc(C#N)ccc2-c2ccc(C3(F)CNC3)cn2)cc(N2CCOCC2)n1` [compound 538, 4-[5-(3-fluoroazetidin-3-yl)pyridin-2-yl]-3-(2-methyl-6-morpholin-4-ylpyridin-4-yl)oxybenzonitrile], the IC50 was 10 to 1000 nM.
The figure for `Cn1nc(-c2ccccn2)cc1Oc1cc(C#N)ccc1-c1cc(CN)ccn1` [compound 642, 4-[4-(aminomethyl)pyridin-2-yl]-3-(2-methyl-5-pyridin-2-ylpyrazol-3-yl)oxybenzonitrile] is < 10 nM; for `N#Cc1ccc(-c2ccc(CN)cn2)c(C(=O)c2sc(N3CCOCC3)nc2C(F)(F)F)c1` [compound 1080, 4-[5-(aminomethyl)pyridin-2-yl]-3-[2-morpholin-4-yl-4-(trifluoromethyl)-1,3-thiazole-5-carbonyl]benzonitrile] it is < 10 nM; for `Cn1nc(-c2ccccc2)cc1Oc1cc(C#N)ccc1-c1cc2c(cn1)CNCC2` [Compound 291, 3-(2-methyl-5-phenylpyrazol-3-yl)oxy-4-(5,6,7,8-tetrahydro-2,7-naphthylidin-3-yl)benzonitrile] it is > 1000 nM.
The figure for `Cc1nn(CC2CC2)cc1C(=O)c1cc(C#N)ccc1-c1ncc(CCN)cn1` [compound 1033, 4-[5-(2-aminoethyl)pyrimidin-2-yl]-3-[1-(cyclopropylmethyl)-3-methylpyrazole-4-carbonyl]benzonitrile] is < 10 nM; for `Cn1nc(C2CC2)cc1Oc1cc(C#N)ccc1-c1ccc(C(O)CN)cc1` (stereo not drawn) [Compound 215, 4-[4-(2-amino-1-hydroxyethyl)phenyl]-3-(5-cyclopropyl-2-methylpyrazol-3-yl)oxybenzonitrile] it is < 10 nM.
